Literature values in patent EP1385541B1, “IMMUNOSTIMULANT COMPOSITIONS COMPRISING AN AMINOALKYL GLUCOSAMINIDE PHOSPHATE AND QS-21” (priority 2000, dated 2001).
Read-outs that look alike come from different tables or passages of the source.

Key:
sheep red blood cells = details: substantially pure QS-21 saponin, as described in U.S. Patent No. 5,057,540

Q: For QS-21, which critical micellar concentration (in phosphate buffered saline) is on record?
A: ~0.02 % (w/v)

Q: And the critical micellar concentration (in water)?
A: about 0.03 % (w/v)

Q: What about the “hemolysis of sheep red blood cells at concentrations of” value (sheep red blood cells) of the same substance?
A: ≥ 25 µg/mL
